Data published in ChEMBL document CHEMBL1149930, “3-Hydroxy-19-nor-17-pregna-1,3,5(10)-triene-21,17-carbolactone as inhibitor of 17-hydroxysteroid dehydrogenase type 2” (Bioorg Med Chem Lett, 1994).

How the values were obtained:
[1] = biological target: T1, 17-beta-hydroxysteroid dehydrogenase type 2 (Homo sapiens, UniProt P37059); assay: Inhibitory activity against human placenta 17-beta-hydroxysteroid dehydrogenase type 2 (17-beta-HSD type 2)
T1 sequence (P37059 whole entry): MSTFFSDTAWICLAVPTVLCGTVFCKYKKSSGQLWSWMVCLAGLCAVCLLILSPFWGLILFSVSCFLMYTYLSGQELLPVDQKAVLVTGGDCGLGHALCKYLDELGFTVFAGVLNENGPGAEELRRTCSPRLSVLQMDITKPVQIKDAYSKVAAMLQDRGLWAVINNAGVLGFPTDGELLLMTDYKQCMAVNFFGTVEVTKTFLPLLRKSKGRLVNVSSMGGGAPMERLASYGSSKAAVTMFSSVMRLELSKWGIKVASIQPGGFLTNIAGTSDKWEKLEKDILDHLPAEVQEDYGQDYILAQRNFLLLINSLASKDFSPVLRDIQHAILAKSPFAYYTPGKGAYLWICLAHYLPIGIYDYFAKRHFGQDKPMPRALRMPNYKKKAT

[2] = biological target: T1, 17-beta-hydroxysteroid dehydrogenase type 2; assay: Inhibitory constant against human placenta 17-beta-hydroxysteroid dehydrogenase type 2 (17-beta-HSD type 2)

## C[C@]12CCC3C4=CCC(=O)C=C4CCC3C1CC[C@@]21CCC(=O)O1 (stereo partly drawn)
[1]
  IC50: 1410 nM

## C[C@]12CC[C@@H]3c4ccc(O)cc4CC[C@H]3[C@@H]1CC[C@@]21CCC(=O)O1
[2]
  Ki: 250 nM
[1]
  IC50: 270 nM
